The source of these data is patent publication US11613542B2, “Sulfonylureas and sulfonylthioureas as NLRP3 inhibitors” (Inflazome Limited, priority 2017, dated 2023).

Where a name gives a salt, the structure may show the parent alone.

In general, IC50 refers to the concentration at which inhibition is half-maximal.

Assay [1] addresses T1, NLRP3 (Homo sapiens, UniProt Q96P20). Put plainly: Human whole blood IL1β release assay. It is filed as cell-based. The arrangement: Human whole blood in Li-heparin tubes was obtained from healthy donors; from tissue; host or cells: human whole blood from healthy donors, LPS-primed, nigericin-stimulated. The method, then:
Human Whole Blood IL1β Release Assay
For systemic delivery, the ability to inhibit NLRP3 when the compounds are present within the bloodstream is of great importance. For this reason, the NLRP3 inhibitory activity of a number of compounds in human whole blood was investigated in accordance with the following protocol.
Human whole blood in Li-heparin tubes was obtained from healthy donors from a volunteer donor panel. • 1. Plate out 80 μl of whole blood containing 1 μg/ml of LPS in 96-well, clear bottom cell culture plate (Corning #3585) • 2. Add 10 μl compound (8 points half-log dilution with 10 μM top dose) or vehicle (DMSO 0.1% FAC) to the appropriate wells • 3. Incubate for 3 hrs at 37° C., 5% CO2 • 4. Add 10 μl Nigericin (Sigma #N7143) (10 μM FAC) to all wells • 5. Incubate for 1 hr at 37° C., 5% CO2 • 6. At the end of the incubation period, spin plates at 300 xg for 5 mins to pellet cells and remove 20 μl of supernatant and add to 96-well v-bottom plates for IL-1β analysis (note: these plates containing the supernatants can be stored at −80° C. to be analysed at a later date) • 7. IL-1β was measured according to the manufacturer protocol (Perkin Elmer-AlphaLisa IL-1 Kit AL220F-5000) • 8. IC50 data is fitted to a non-linear regression equation (log inhibitor vs response-variable slope 4-parameters)

Assay [2] has as its target T1, NLRP3. The assay is described as follows: THP-1 cells pyroptosis assay. It is filed as cell-based. The arrangement: Seed THP-1 cells (25,000 cells/well) containing 1.0 μg/ml LPS; host or cells: THP-1 cells, LPS-primed, nigericin-stimulated. Summed up: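 THP-1 cells (25,000/well) in serum-free RPMI with 1.0 μg/ml LPS, treated with compound (8-point half-log dilution, 10 μM top, 0.1% DMSO), then nigericin 5 μM final. Viability read by resazurin (100 μM final, 1-2 h, 37° C) fluorescence Ex 560/Em 590 nm; IC50 from 4-parameter variable-slope fit.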

The mark [3] stands for this setting: human whole blood, 1 μg/ml LPS, compound 3 hrs, nigericin 10 μM 1 hr, IL-1β AlphaLisa, read-out: HWB IC50.
Where [4] appears, read: THP-1 cells, 1.0 μg/ml LPS, compound 3 hrs, nigericin 5 μM 1 hr, resazurin readout, read-out: THP IC50.

T1 sequence (Q96P20 whole entry): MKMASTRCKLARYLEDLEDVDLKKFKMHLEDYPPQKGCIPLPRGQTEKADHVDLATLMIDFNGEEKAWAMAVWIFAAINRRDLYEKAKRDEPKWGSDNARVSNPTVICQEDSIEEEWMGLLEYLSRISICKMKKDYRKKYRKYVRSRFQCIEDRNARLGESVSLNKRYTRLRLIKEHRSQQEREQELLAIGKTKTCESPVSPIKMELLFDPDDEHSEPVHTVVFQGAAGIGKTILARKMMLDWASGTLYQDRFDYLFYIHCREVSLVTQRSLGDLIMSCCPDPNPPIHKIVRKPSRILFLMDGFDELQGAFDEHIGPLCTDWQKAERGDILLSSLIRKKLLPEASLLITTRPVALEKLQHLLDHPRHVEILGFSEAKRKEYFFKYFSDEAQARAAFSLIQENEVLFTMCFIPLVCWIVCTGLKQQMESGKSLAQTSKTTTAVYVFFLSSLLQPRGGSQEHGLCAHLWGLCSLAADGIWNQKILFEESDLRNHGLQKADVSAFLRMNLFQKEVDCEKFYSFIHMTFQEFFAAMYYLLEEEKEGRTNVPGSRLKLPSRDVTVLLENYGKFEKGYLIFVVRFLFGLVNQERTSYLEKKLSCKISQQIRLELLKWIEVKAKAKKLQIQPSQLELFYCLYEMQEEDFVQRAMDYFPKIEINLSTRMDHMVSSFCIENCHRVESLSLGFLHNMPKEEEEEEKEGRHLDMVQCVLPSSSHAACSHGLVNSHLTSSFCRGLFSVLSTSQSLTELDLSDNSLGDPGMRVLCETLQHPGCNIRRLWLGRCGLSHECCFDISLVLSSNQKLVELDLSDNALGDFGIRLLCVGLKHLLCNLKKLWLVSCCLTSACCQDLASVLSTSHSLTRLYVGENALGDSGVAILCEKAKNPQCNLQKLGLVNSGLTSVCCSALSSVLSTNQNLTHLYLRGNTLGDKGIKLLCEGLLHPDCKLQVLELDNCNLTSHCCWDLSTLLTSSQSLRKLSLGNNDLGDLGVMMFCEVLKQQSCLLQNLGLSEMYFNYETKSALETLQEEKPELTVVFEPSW

On to `CC(=O)N(C)Cc1cc(S(=O)(=O)NC(=O)Nc2c3c(cc4c2CCC4)CCC3)nn1C(C)C` [Example 129, N-((3-(N-((1,2,3,5,6,7-Hexahydro-s-indacen-4-yl)carbamoyl)sulfamoyl)-1-isopropyl-1H-pyrazol-5-yl)methyl)-N-methylacetamide], for which the 50% inhibitory concentration (IC50) on NLRP3 [1] (setting [3]) was under 800 nM; at NLRP3 [2] (setting [4]), under 160 nM.

In the case of `CNC(=O)c1cc(S(=O)(=O)NC(=O)Nc2c(C(C)C)cc(Cl)cc2C(C)C)nn1C` [Example 132, 3-(N-((4-chloro-2,6-diisopropylphenyl)carbamoyl)sulfamoyl)-N,1-dimethyl-1H-pyrazole-5-carboxamide], the IC50 is under 3200 nM at NLRP3 [1] (setting [3]) and under 640 nM at NLRP3 [2] (setting [4]).

As for `CC(C)c1cccc(C(C)C)c1NC(=O)NS(=O)(=O)c1cc(C(=O)N2CC(F)C2)n(C)n1` [Example 139, N-((2,6-Diisopropylphenyl)carbamoyl)-5-(3-fluoroazetidine-1-carbonyl)-1-methyl-1H-pyrazole-3-sulfonamide, sodium salt], the figures for the 50% inhibitory concentration (IC50) at NLRP3 [1] (setting [3]) and on NLRP3 [2] (setting [4]) were under 1600 nM and under 2560 nM, respectively.

Consider `CC(C)c1cccc(C(C)C)c1NC(=O)NS(=O)(=O)c1cc(C(=O)N(C)C2CC2)n(C)n1` [Example 143, N-Cyclopropyl-3-(N-((2,6-diisopropylphenyl)carbamoyl)sulfamoyl)-N,1-dimethyl-1H-pyrazole-5-carboxamide], for which the results for the IC50 on NLRP3 [1] (setting [3]) and on NLRP3 [2] (setting [4]) were under 1600 nM and under 160 nM, respectively.

`CC(C)c1ccc(C(C)C)c(NC(=O)NS(=O)(=O)c2cc(C(=O)N(C)C)n(C)n2)c1` [Example 144, 3-(N-((2,5-Diisopropylphenyl)carbamoyl)sulfamoyl)-N,N,1-trimethyl-1H-pyrazole-5-carboxamide, sodium salt]: the IC50 at NLRP3 [1] (setting [3]) was under 10000 nM; at NLRP3 [2] (setting [4]), under 640 nM.

For the molecule `CC(C)c1cc(F)cc(C(C)C)c1NC(=O)NS(=O)(=O)c1cc(C(=O)N(C)C(C)C)n(C)n1` [Example 147, 3-(N-((4-Fluoro-2,6-diisopropylphenyl)carbamoyl)sulfamoyl)-N-isopropyl-N,1-dimethyl-1H-pyrazole-5-carboxamide], the values for the IC50 on NLRP3 [1] (setting [3]) and at NLRP3 [2] (setting [4]) were under 800 nM and under 160 nM, respectively.

For the molecule `CCN(C)C(=O)c1cc(S(=O)(=O)NC(=O)Nc2c(C(C)C)cc(F)cc2C(C)C)nn1C` [Example 149, N-Ethyl-3-(N-((4-fluoro-2,6-diisopropylphenyl)carbamoyl)sulfamoyl)-N,1-dimethyl-1H-pyrazole-5-carboxamide, sodium salt], the figures for the IC50 on NLRP3 [1] (setting [3]) and on NLRP3 [2] (setting [4]) were under 800 nM and under 640 nM, respectively.

For the molecule `CNC(=O)c1cc(S(=O)(=O)NC(=O)Nc2c(C(C)C)cc(F)cc2C(C)C)nn1C` [Example 150, 3-(N-((4-Fluoro-2,6-diisopropylphenyl)carbamoyl)sulfamoyl)-N,1-dimethyl-1H-pyrazole-5-carboxamide], the IC50 on NLRP3 [1] (setting [3]) is under 400 nM; at NLRP3 [2] (setting [4]), under 640 nM.

Turning to `CC(C)c1cccc(C(C)C)c1NC(=O)NS(=O)(=O)c1cc(C(=O)N2CCC2)n(C)n1` [Example 151, 5-(Azetidine-1-carbonyl)-N-((2,6-diisopropylphenyl)carbamoyl)-1-methyl-1H-pyrazole-3-sulfonamide], the IC50 on NLRP3 [1] (setting [3]) is under 400 nM; at NLRP3 [2] (setting [4]), under 640 nM.

Turning to `CN(C(=O)c1cc(S(=O)(=O)NC(=O)Nc2c3c(cc4c2CCC4)CCC3)nn1C)C1CC1` [Example 152, N-Cyclopropyl-3-(N-((1,2,3,5,6,7-hexahydro-s-indacen-4-yl)carbamoyl)sulfamoyl)-N,1-dimethyl-1H-pyrazole-5-carboxamide], the IC50 was under 800 nM on NLRP3 [1] (setting [3]) and under 160 nM on NLRP3 [2] (setting [4]).

As for `CN(CC#N)C(=O)c1cc(S(=O)(=O)NC(=O)Nc2c3c(cc4c2CCC4)CCC3)nn1C` [Example 153, N-(Cyanomethyl)-3-(N-((1,2,3,5,6,7-hexahydro-s-indacen-4-yl)carbamoyl)sulfamoyl)-N,1-dimethyl-1H-pyrazole-5-carboxamide, partial ammonium salt], the results for the IC50 at NLRP3 [1] (setting [3]) and on NLRP3 [2] (setting [4]) were under 1600 nM and under 640 nM, respectively.

With `Cn1nc(S(=O)(=O)NC(=O)Nc2c3c(cc4c2CCC4)CCC3)cc1C(=O)N1CCC1` [Example 154, 5-(Azetidine-1-carbonyl)-N-((1,2,3,5,6,7-hexahydro-s-indacen-4-yl)carbamoyl)-1-methyl-1H-pyrazole-3-sulfonamide], the half-inhibitory concentration (IC50) at NLRP3 [1] (setting [3]) was under 3200 nM; at NLRP3 [2] (setting [4]), under 160 nM.

As for `CNC(=O)c1cc(S(=O)(=O)NC(=O)Nc2c(C(C)C)cccc2C(C)C)nn1C` [Example 155, 3-(N-((2,6-Diisopropylphenyl)carbamoyl)sulfamoyl)-N,1-dimethyl-1H-pyrazole-5-carboxamide], the IC50 on NLRP3 [1] (setting [3]) was under 800 nM; at NLRP3 [2] (setting [4]) it was under 640 nM.

As for `CCN(C)C(=O)c1cc(S(=O)(=O)NC(=O)Nc2c(C(C)C)cccc2C(C)C)nn1C` [Example 156, 3-(N-((2,6-Diisopropylphenyl)carbamoyl)sulfamoyl)-N-ethyl-N,1-dimethyl-1H-pyrazole-5-carboxamide], the figures for the concentration for half-maximal inhibition (IC50) on NLRP3 [1] (setting [3]) and at NLRP3 [2] (setting [4]) were under 3200 nM and under 2560 nM, respectively.

Consider `CC(C)c1cccc(C(C)C)c1NC(=O)NS(=O)(=O)c1cc(C(=O)N(C)C(C)C)n(C)n1` [Example 158, 3-(N-((2,6-Diisopropylphenyl)carbamoyl)sulfamoyl)-N-isopropyl-N,1-dimethyl-1H-pyrazole-5-carboxamide], for which the results for the IC50 on NLRP3 [1] (setting [3]) and on NLRP3 [2] (setting [4]) were under 800 nM and under 640 nM, respectively.

On to `CC(C)N(C)C(=O)c1cc(S(=O)(=O)NC(=O)Nc2c3c(cc4c2CCC4)CCC3)nn1C` [Example 164, 3-(N-((1,2,3,5,6,7-Hexahydro-s-indacen-4-yl)carbamoyl)sulfamoyl)-N-isopropyl-N,1-dimethyl-1H-pyrazole-5-carboxamide], for which the values for the IC50 on NLRP3 [1] (setting [3]) and on NLRP3 [2] (setting [4]) were under 3200 nM and under 160 nM, respectively.

For the molecule `CCN(CC)C(=O)c1cc(S(=O)(=O)NC(=O)Nc2c3c(cc4c2CCC4)CCC3)nn1C` [Example 165, N,N-diethyl-3-(N-((1,2,3,5,6,7-Hexahydro-s-indacen-4-yl)carbamoyl)sulfamoyl)-1-methyl-1H-pyrazole-5-carboxamide], the IC50 on NLRP3 [1] (setting [3]) is under 1600 nM; on NLRP3 [2] (setting [4]), under 160 nM.

With `CN(C)Cc1c(S(=O)(=O)NC(=O)Nc2c3c(cc4c2CCC4)CCC3)ncn1C` [Example 171, 5-((Dimethylamino)methyl)-N-((1,2,3,5,6,7-hexahydro-s-indacen-4-yl)carbamoyl)-1-methyl-1H-imidazole-4-sulfonamide], the IC50 at NLRP3 [1] (setting [3]) is under 1600 nM; at NLRP3 [2] (setting [4]) it was under 640 nM.

On to `CC(C)c1cc(Cl)cc(C(C)C)c1NC(=O)NS(=O)(=O)c1cc(C(=O)N(C)CCO)n(C)n1` [Example 172, 3-(N-((4-Chloro-2,6-diisopropylphenyl)carbamoyl)sulfamoyl)-N-(2-hydroxyethyl)-N,1-dimethyl-1H-pyrazole-5-carboxamide], for which the IC50 at NLRP3 [1] is under 1600 nM; on NLRP3 [2], under 160 nM.

For `COc1cc(-c2ccc3c(c2NC(=O)NS(=O)(=O)c2ccn(C(C)(C)CN(C)C)n2)CCC3)ccn1` [Example 178, 1-(1-(Dimethylamino)-2-methylpropan-2-yl)-N-((5-(2-methoxypyridin-4-yl)-2,3-dihydro-1H-inden-4-yl)carbamoyl)-1H-pyrazole-3-sulfonamide], the IC50 on NLRP3 [1] (setting [3]) was under 400 nM; on NLRP3 [2] (setting [4]), under 40 nM.

Take `CN(C)CCn1ccc(S(=O)(=O)NC(=O)Nc2c3c(cc4c2CCC4)CC=C3)n1` [Example 181, 1-(2-(Dimethylamino)ethyl)-N-((1,2,3,7-tetrahydro-s-indacen-4-yl)carbamoyl)-1H-pyrazole-3-sulfonamide, potassium salt]: the IC50 on NLRP3 [1] (setting [3]) was under 800 nM; on NLRP3 [2] (setting [4]) it was under 160 nM.

In the case of `CN(C)CC(C)(C)n1cc(S(=O)(=O)NC(=O)Nc2c3c(cc4c2CCC4)CCC3)cn1` [Example 183, 1-(1-(Dimethylamino)-2-methylpropan-2-yl)-N-((1,2,3,5,6,7-hexahydro-s-indacen-4-yl)carbamoyl)-1H-pyrazole-4-sulfonamide], the IC50 on NLRP3 [1] (setting [3]) is under 1600 nM; on NLRP3 [2] (setting [4]), under 160 nM.

`CC(C)(C#N)n1ccc(S(=O)(=O)NC(=O)Nc2c(-c3ccnc(OC(F)F)c3)ccc3c2CCO3)n1` [Example 189, 1-(2-Cyanopropan-2-yl)-N-((5-(2-(difluoromethoxy)pyridin-4-yl)-2,3-dihydrobenzofuran-4-yl)carbamoyl)-1H-pyrazole-3-sulfonamide]: the IC50 at NLRP3 [1] (setting [3]) was under 400 nM; on NLRP3 [2] (setting [4]), under 160 nM.
